For one experiment, the system named is HuT78. Kind of experiment: Pro-apoptotic activity in human HUT78 cells after 18 hrs by caspase-Glo 3/7 assay. The experiment is classed as functional, cell-based. Particulars: HuT78, 18 h.
Experiment [1] addresses T1, NAD-dependent protein deacetylase sirtuin-1 (Homo sapiens, UniProt Q96EB6).
T1 sequence (Q96EB6 whole entry): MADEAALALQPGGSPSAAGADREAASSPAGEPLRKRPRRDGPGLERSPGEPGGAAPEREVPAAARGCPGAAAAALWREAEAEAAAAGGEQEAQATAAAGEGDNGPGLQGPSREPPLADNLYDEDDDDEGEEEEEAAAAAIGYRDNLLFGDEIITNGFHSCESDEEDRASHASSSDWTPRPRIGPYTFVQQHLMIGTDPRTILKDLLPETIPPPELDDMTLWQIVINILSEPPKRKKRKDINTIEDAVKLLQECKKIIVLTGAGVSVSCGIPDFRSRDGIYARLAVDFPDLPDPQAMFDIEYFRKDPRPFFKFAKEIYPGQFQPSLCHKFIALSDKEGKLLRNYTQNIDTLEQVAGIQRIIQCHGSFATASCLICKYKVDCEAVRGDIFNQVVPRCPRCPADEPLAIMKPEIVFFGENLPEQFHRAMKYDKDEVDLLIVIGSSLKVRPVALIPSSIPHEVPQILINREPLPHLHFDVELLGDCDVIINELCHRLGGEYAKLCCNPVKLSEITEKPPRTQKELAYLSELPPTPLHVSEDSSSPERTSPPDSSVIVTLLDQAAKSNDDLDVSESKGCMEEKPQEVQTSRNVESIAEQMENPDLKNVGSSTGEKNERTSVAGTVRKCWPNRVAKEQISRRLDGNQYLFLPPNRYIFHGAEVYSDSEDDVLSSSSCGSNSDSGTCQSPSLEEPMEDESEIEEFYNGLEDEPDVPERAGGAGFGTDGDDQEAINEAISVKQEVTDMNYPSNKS
Kind of experiment: Inhibition of human recombinant SIRT1 using fluorogenic HDAC substrate after 20 mins by fluorimetrc method.

Experiment [2] deals with T2, NAD-dependent protein deacetylase sirtuin-7 (Homo sapiens, UniProt Q9NRC8).
T2 sequence (Q9NRC8 whole entry): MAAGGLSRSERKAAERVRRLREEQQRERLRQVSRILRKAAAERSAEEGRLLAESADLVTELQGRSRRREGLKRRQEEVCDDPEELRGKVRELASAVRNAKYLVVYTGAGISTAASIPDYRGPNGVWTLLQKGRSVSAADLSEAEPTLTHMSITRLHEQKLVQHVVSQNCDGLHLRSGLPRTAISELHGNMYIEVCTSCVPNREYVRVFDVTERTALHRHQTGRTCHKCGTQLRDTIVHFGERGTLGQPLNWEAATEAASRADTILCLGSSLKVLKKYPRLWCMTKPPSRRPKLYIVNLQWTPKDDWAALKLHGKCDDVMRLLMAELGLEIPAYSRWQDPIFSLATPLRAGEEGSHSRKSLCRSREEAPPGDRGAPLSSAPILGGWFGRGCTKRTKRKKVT
Kind of experiment: Inhibition of SIRT7 (unknown origin).

The target of a further experiment is Histone deacetylase 3 (Homo sapiens, UniProt O15379). As to the kind of experiment: Inhibition of human recombinant HDAC3 using fluorogenic HDAC substrate after 10 mins by […] method.
In another experiment the target is Histone deacetylase 2 (Homo sapiens, UniProt Q92769). As to the kind of experiment: Inhibition of human recombinant HDAC2 using fluorogenic HDAC substrate after 15 mins by fluorimetrc method.
A further experiment concerns the target Histone deacetylase 1 (Homo sapiens, UniProt Q13547). As to the kind of experiment: Inhibition of human recombinant HDAC1 using Fluor de Lys as substrate after 2 hrs by fluorescence method.
For a further experiment, the target named is T3, Histone deacetylase 7 (Homo sapiens, UniProt Q8WUI4).
T3 sequence (Q8WUI4 whole entry): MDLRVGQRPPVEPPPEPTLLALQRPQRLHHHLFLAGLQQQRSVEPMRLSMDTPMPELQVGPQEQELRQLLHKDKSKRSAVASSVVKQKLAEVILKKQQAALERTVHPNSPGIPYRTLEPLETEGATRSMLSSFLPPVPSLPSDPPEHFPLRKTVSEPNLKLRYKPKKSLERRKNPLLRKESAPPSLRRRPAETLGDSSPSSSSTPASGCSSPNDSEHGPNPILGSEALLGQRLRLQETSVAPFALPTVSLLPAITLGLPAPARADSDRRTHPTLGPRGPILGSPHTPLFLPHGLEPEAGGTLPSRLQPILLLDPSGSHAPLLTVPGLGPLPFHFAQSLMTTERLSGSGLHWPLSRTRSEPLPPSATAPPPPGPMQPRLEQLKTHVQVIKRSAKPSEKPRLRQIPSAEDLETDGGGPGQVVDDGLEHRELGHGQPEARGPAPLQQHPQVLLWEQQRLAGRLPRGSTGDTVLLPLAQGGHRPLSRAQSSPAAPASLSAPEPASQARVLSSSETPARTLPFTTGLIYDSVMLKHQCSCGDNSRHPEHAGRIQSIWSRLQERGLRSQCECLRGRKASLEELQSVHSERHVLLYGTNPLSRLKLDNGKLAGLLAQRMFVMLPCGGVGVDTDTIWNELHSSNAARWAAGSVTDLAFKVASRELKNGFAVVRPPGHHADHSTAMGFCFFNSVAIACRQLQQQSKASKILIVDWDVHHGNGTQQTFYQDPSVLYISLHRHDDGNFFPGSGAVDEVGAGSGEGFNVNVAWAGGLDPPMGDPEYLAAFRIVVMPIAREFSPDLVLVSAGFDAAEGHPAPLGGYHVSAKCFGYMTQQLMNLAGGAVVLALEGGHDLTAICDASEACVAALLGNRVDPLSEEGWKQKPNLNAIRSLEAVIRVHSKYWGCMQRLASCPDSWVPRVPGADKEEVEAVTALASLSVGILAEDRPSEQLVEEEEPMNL
As to the kind of experiment: Inhibition of human recombinant HDAC7 using fluorogenic HDAC substrate class 2a after 45 mins by fluorimetrc method.

Sequence of Histone deacetylase 3 (O15379 whole entry): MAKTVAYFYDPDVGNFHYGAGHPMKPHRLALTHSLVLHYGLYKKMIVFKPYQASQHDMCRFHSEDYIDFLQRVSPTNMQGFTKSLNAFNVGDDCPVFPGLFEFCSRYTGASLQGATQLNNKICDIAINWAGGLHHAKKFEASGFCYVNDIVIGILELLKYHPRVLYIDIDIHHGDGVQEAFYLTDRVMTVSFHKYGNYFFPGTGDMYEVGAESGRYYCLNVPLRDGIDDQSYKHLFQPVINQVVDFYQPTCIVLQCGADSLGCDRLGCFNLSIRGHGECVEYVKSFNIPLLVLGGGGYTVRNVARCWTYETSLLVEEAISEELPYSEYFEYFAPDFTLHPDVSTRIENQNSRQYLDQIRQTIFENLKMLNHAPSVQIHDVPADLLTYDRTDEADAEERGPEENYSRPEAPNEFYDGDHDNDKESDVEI
Sequence of Histone deacetylase 2 (Q92769 whole entry): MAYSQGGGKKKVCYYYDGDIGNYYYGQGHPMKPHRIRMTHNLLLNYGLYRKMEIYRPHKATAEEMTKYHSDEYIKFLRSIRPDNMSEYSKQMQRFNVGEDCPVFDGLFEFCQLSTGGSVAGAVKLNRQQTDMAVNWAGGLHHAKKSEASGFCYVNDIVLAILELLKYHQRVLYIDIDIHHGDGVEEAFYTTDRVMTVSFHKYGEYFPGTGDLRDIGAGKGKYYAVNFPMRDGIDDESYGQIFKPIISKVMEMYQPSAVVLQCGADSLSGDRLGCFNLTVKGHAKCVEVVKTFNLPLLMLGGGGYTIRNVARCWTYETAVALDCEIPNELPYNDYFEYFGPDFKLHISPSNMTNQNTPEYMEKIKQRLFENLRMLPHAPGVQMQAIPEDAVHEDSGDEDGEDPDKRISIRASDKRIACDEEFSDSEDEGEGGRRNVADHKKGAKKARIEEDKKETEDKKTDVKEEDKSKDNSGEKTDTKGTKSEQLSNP
Sequence of Histone deacetylase 1 (Q13547 whole entry): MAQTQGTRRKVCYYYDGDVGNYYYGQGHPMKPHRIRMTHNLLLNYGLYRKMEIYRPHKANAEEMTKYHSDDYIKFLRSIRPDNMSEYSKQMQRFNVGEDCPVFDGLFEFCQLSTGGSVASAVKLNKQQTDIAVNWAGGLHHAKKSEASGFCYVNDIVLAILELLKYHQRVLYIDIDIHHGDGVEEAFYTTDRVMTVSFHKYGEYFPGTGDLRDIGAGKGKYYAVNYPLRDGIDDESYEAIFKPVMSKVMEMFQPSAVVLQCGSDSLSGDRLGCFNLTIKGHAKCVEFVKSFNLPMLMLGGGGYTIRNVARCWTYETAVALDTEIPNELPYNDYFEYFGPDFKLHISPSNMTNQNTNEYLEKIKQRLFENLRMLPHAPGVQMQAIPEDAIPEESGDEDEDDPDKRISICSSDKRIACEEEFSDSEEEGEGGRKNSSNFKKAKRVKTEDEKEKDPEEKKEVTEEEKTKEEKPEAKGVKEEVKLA

For `CC(Nc1c(NCCCCCC(=O)NO)c(=O)c1=O)C12CC3CC(CC(C3)C1)C2` (stereo unspecified), the response in the experiment with HuT78 was half-maximal at 98 nM (EC50). Further, the Ki is more than 10000 nM in experiment [1]; more than 10000 nM in experiment [2]; 58 nM at Histone deacetylase 3; 130 nM at Histone deacetylase 2; 3.8 nM on Histone deacetylase 1; more than 10000 nM at Histone deacetylase 7.

`COc1ccc(Nc2c(NCCCCCC(=O)NO)c(=O)c2=O)cc1`: a half-maximal response in the experiment with HuT78 (EC50) required 4.9 nM. The Ki is more than 10000 nM in experiment [1]; more than 10000 nM in experiment [2]; 0.8 nM on Histone deacetylase 3; 3.1 nM on Histone deacetylase 2; 0.075 nM on Histone deacetylase 1; more than 10000 nM on Histone deacetylase 7.

In the experiment with HuT78, `CC(C)(CCCCC(=O)NO)Nc1c(Nc2ccc(C(F)(F)F)cc2)c(=O)c1=O` gave an EC50 of 7.3 nM. Also, the Ki in experiment [1] was more than 10000 nM; in experiment [2], more than 10000 nM; on Histone deacetylase 3, 12 nM; on Histone deacetylase 2, 23 nM; at Histone deacetylase 1 it was 0.27 nM; at Histone deacetylase 7, 1700 nM.

One may read the EC50 as the concentration giving half of the maximal effect. Read a high EC50 as weaker potency. For orientation: Ki means a dissociation constant, usually derived from enzyme kinetics or from competition with a known ligand.
